Experimental data: patent publication US20220007644A1, “COMPOSITIONS COMPRISING PYRIDINE CARBOXYLATE HERBICIDES WITH PHOTOSYSTEM II AND OPTIONAL HPPD INHIBITOR HERBICIDES” (Corteva Agriscience LLC, priority 2018, published 2022)
Where “and” joins values, the source holds several entries; their conditions need not be identical. Equal entries are not always repeated.

How the values were obtained:
Assay in all cases: Greenhouse postemergence herbicidal effect (visual injury, 20-22 d)
Format in all cases: in vivo
[1] = system: ALOMY, Alopecurus myosuroides (blackgrass)
[2] = system: AMARE, Amaranthus retroflexus (pigweed)
How it was run: (§1)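 Plants at 2nd–3rd true leaf stage were sprayed postemergence with pyridine carboxylate herbicide (g ae/ha; emulsifiable concentrate with cloquintocet-mexyl safener) plus PS-II and optional HPPD herbicide (g ai/ha) in 1.25% v/v crop oil at 187 L/ha. Visual injury versus solvent-blank controls was scored 0–100% after 20-22 d.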

[3] = system: BRSNN, Brassica napus (spring rape)
How it was run: as §1

[4] = system: CHEAL, Chenopodium album L. (common lambsquarters)
How it was run: as §1

[5] = system: CIRAR, Cirsium arvense (Canada thistle); conditions: for % visual injury, Obs: CIRAR, Compound A 10 g/ha
[6] = system: DIGSA, Digitaria sanguinalis (large crabgrass); conditions: Compound A 10 g/ha, without cloquintocet-mexyl safener
[7] = system: ECHCG, Echinochloa crus-galli (barnyard grass); conditions: Compound A 10 g/ha, without cloquintocet-mexyl safener
[8] = system: HELAN, Helianthus annuus (common sunflower); conditions: Compound A 10 g/ha, without cloquintocet-mexyl safener
[9] = system: IPOHE, Ipomoea hederacea (ivyleaf morningglory)
[10] = system: LEFCH, Leptochloa chinensis (Chinese sprangletop); conditions: Compound A 10 g/ha, without cloquintocet-mexyl safener
[11] = system: SORVU, Sorghum vulgare (grain sorghum)
How it was run: as §1

N#CCOC(=O)c1nc(-c2ccc3cc[nH]c3c2F)c(F)c(N)c1Cl [Compound A, cyanomethyl 4-amino-3-chloro-5-fluoro-6-(7-fluoro-1H-indol-6-yl)pyridine-2-carboxylate]
visual injury ([1]; 7.5 g ae/ha alone): 0% | visual injury ([1]; 10 g ae/ha alone): 0% | % visual injury, Obs ([1]; ALOMY, Compound A 10 g/ha, without cloquintocet-mexyl safener): 0% | visual injury ([2]; 7.5 g ae/ha alone): 78% and 70% and 90% | visual injury ([2]; 10 g ae/ha alone): 73% and 90% and 85% | % visual injury, Obs ([2]; AMARE, Compound A 10 g/ha): 88% | visual injury ([3]; 10 g ae/ha alone): 60% and 45% and 73% | % visual injury, Obs ([3]; BRSNN, Compound A 10 g/ha): 65% | visual injury ([4]; 7.5 g ae/ha alone): 88% and 70% and 75% | visual injury ([4]; 10 g ae/ha alone): 93% and 83% and 78% and 80% | visual injury ([5]; 10 g ae/ha alone): 40% and 60% and 30% and 55% | % visual injury, Obs [5]: 60% | % visual injury, Obs ([5]; without cloquintocet-mexyl safener): 28% | % visual injury, Obs [6]: 8% | % visual injury, Obs [7]: 58% | % visual injury, Obs [8]: 100% | visual injury ([9]; 7.5 g ae/ha alone): 20% | visual injury ([9]; 10 g ae/ha alone): 25% | % visual injury, Obs ([9]; IPOHE, Compound A 10 g/ha, without cloquintocet-mexyl safener): 15% | % visual injury, Obs [10]: 0% | visual injury ([11]; 7.5 g ae/ha alone): 0% | visual injury ([11]; 10 g ae/ha alone): 0% | % visual injury, Obs ([11]; SORVU, Compound A 10 g/ha, without cloquintocet-mexyl safener): 0%
